The subject of this series is Caco-2 cells. Briefly: Caco-2 cellular permeability. The settings on record: ratio of Papp apical to basolateral / basolateral to apical. In general terms: Caco-2 cells form a polarised layer with tight junctions and transporters.
Procedure: For example, passive permeability can be evaluated by examining the flux of a prodrug across a cultured polarized cell monolayer (e.g., Caco-2 cells).
Caco-2 cells obtained from continuous culture (passage less than 28) were seeded at high density onto Transwell polycarbonate filters. Cells were maintained with DMEM/10% fetal bovine serum, 1 mM nonessential amino acids, and 6 mM L-Gln, 5% CO2/95% O2, at 37° C. until the day of the experiment. Permeability studies were conducted at pH 6.5 apically (in 50 mM MES buffer containing 1 mM CaCl2, 1 mM MgCl2, 150 mM NaCl, 3 mM KCl, 1 mM NaH2PO4, 5 mM glucose) and pH 7.4 basolaterally (in Hanks' balanced salt solution containing 10 mM HEPES) in the presence of efflux pump inhibitors (250 μM MK-571 and 250 μM Verapamil). Inserts were placed in 12 or 24 well plates containing buffer and incubated for 30 min at 37° C. Prodrug (200 μM) was added to the apical or basolateral compartment (donor) and concentrations of prodrug and/or released parent drug in the opposite compartment (receiver) were determined at intervals over 1 hour using LC/MS/MS. Values of apparent permeability (Papp) were calculated using the equation: Papp=Vr(dC/dt)//(ACo) where Vr is the volume of the receiver compartment in mL; dC/dt is the total flux of prodrug and parent drug (μM/sec), determined from the slope of the plot of concentration in the receiver compartment versus time; C0 is the initial concentration of prodrug in μM; and A is the surface area of the membrane in cm^2.
As to `CCCC(=O)OC(C)OC(=O)NC[C@H]1CC[C@H](C(=O)O)CC1` (relative stereo) [Compound 10, trans-4-{[1-(Butanoyloxy)ethoxycarbonyl]aminomethyl}-Cyclohexanecarboxylic Acid], the “Ratio A-B/B-A” value is recorded as 4.9.

As to `CC(C)C(=O)OCOC(=O)NC[C@H]1CC[C@H](C(=O)O)CC1` [Compound 4, trans-4-{[(2-Methylpropanoyloxy)methoxycarbonyl]aminomethyl}-Cyclohexanecarboxylic Acid], the “Ratio A-B/B-A” value is 7.7.

Turning to `CC(C)CC(=O)OC(C)OC(=O)NC[C@H]1CC[C@H](C(=O)O)CC1` (single isomer, unassigned) [Compound 19, trans-4-{[1-(3-Methylbutanoyloxy)ethoxycarbonyl]aminomethyl}-Cyclohexanecarboxylic Acid], the “Ratio A-B/B-A” value is 5.2.

`CC(C)C(OC(=O)NC[C@H]1CC[C@H](C(=O)O)CC1)OC(=O)c1ccccc1` (relative stereo) [Compound 49, trans-4-{[1-(Benzoyloxy)-2-methylpropoxycarbonyl]aminomethyl}-Cyclohexanecarboxylic Acid]: the “Ratio A-B/B-A” value came to 2.9.

Consider `O=C(NC[C@H]1CC[C@H](C(=O)O)CC1)OCOC(=O)c1ccccc1` [Compound 7, trans-4-{[(Benzoyloxy)methoxycarbonyl]aminomethyl}-Cyclohexanecarboxylic Acid], for which the “Ratio A-B/B-A” value is 4.2.

For the compound `CC(C)C(=O)O[C@H](C)OC(=O)NC[C@H]1CC[C@H](C(=O)O)CC1` [Compound 15, (+)-trans-4-({[(S)-1-(2-Methylpropanoyloxy)ethoxy]carbonylamino}methyl)-Cyclohexanecarboxylic Acid], the “Ratio A-B/B-A” value worked out at 6.1.

Consider `CCCC(OC(=O)NC[C@H]1CC[C@H](C(=O)O)CC1)OC(=O)C(C)C` (relative stereo) [Compound 36, trans-4-{[1-(2-Methylpropanoyloxy)butoxycarbonyl]aminomethyl}-Cyclohexanecarboxylic Acid], for which the “Ratio A-B/B-A” value was 4.5.

On to `CC(C)C(OC(=O)NC[C@H]1CC[C@H](C(=O)O)CC1)OC(=O)C1CCCCC1` (relative stereo) [Compound 48, trans-4-{[1-(Cyclohexylcarbonyloxy)-2-methylpropoxycarbonyl]aminomethyl}-Cyclohexanecarboxylic Acid], for which the “Ratio A-B/B-A” value is given as 3.1.

As to `CC(OC(=O)NC[C@H]1CC[C@H](C(=O)O)CC1)OC(=O)c1ccccc1` (single isomer, unassigned) [Compound 23, trans-4-{[1-(Benzoyloxy)ethoxycarbonyl]aminomethyl}-Cyclohexanecarboxylic Acid], the “Ratio A-B/B-A” value was 4.5.

As to `CC(C)C(=O)O[C@@H](C)OC(=O)NC[C@H]1CC[C@H](C(=O)O)CC1` [Compound 17, (−)-trans-4-({[(1R)-1-(2-Methylpropanoyloxy)ethoxy]carbonylamino}methyl)-Cyclohexanecarboxylic Acid], the “Ratio A-B/B-A” value is given as 4.0.

Regarding `CC(C)C(=O)OC(OC(=O)NC[C@H]1CC[C@H](C(=O)O)CC1)C(C)C` (single isomer, unassigned) [Compound 44, trans-4-{[1-(2-Methylpropanoyloxy)-2-methylpropoxycarbonyl]aminomethyl}-Cyclohexanecarboxylic Acid], the “Ratio A-B/B-A” value is 2.2.

With `CCCCC(=O)OC(OC(=O)NC[C@H]1CC[C@H](C(=O)O)CC1)C(C)C` (relative stereo) [Compound 42, trans-4-{[1-(Pentanoyloxy)-2-methylpropoxycarbonyl]aminomethyl}-Cyclohexanecarboxylic Acid], the “Ratio A-B/B-A” value came to 2.9.

For the origin of these results see US7777070B2, “Acyloxyalkyl carbamate prodrugs of tranexamic acid, methods of synthesis and use” (XenoPort, Inc., priority 2005, dated 2010).
